Test results published in US20120225062A1 (priority 2011, published 2012).

Columns and labels:
Pim 1 = Pim 1 (Homo sapiens, UniProt P11309); test: Pim 1 AlphaScreen assay (high ATP)
[1] = test system: KMS11 (human myeloma cell line); test: Cell Proliferation Assay (CellTiter-Glo, 3 days); format: cell-based; conditions: KMS-11, 72 h, KMS11-luc cells
In short: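 EC50 from CellTiter-Glo luminescence after 3-day, 37° C compound treatment of KMS11 cells seeded at 2000 per well in IMDM plus 10% FBS.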

Pim 3 = Pim 3 (Homo sapiens, UniProt Q86V86); test: Pim 3 AlphaScreen assay (high ATP)
Pim 2 = Pim 2 (Homo sapiens, UniProt Q9P1W9); test: Pim 2 AlphaScreen assay (high ATP)
Pim 2, sequence (Q9P1W9 whole entry): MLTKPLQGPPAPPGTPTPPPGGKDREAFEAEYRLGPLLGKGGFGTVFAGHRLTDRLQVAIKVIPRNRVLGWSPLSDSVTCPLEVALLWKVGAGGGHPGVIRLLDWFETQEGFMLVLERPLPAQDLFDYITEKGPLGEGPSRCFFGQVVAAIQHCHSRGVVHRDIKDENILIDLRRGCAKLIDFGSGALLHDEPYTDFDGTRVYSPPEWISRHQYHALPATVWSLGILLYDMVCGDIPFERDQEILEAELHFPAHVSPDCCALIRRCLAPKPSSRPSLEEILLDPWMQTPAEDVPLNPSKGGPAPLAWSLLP

Pim 1, sequence (P11309 whole entry): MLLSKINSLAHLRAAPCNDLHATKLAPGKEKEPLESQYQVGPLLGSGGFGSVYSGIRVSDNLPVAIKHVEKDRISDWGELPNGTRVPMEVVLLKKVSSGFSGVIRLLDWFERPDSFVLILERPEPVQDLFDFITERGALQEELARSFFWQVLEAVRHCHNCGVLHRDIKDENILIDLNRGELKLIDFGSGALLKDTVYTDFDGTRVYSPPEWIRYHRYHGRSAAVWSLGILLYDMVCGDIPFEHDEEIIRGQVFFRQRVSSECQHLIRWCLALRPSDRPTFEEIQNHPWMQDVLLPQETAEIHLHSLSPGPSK

| IC50 (Pim 1) [nM] | EC50 [1] [nM] | IC50 (Pim 3) [nM] | IC50 (Pim 2) [nM] | Compound |
| --- | --- | --- | --- | --- |
| 0.03 | 32 | 0.51 | 3.78 | COCCOc1cc(F)c(-c2nc(C(=O)Nc3cnccc3[C@H]3C[C@@H](N)[C@H](O)[C@@H](C)C3)c(N)cc2F)c(F)c1 [Example 120, 3-amino-N-(4-((1R,3R,4R,5S)-3-amino-4-hydroxy-5-methylcyclohexyl)pyridin-3-yl)-6-(2,6-difluoro-4-(2-methoxyethoxy)phenyl)-5-fluoropicolinamide] |
| 0.01 | 36 | 0.18 | 0.39 | C[C@H]1CN(c2ccncc2NC(=O)c2ccc(F)c(-c3c(F)cc(C4(F)CCOCC4)cc3F)n2)C[C@@H](N)[C@@H]1O [Example 195, N-(4-((3R,4R,5S)-3-amino-4-hydroxy-5-methylpiperidin-1-yl)pyridin-3-yl)-6-(2,6-difluoro-4-(4-fluorotetrahydro-2H-pyran-4-yl)phenyl)-5-fluoropicolinamide] |
| 0.01 | 37 | 0.51 | 1.96 | C[C@@H]1C[C@H](N)C[C@H](c2ccncc2NC(=O)c2ccc(F)c(-c3c(F)cc(OCC4CC4)cc3F)n2)C1 [Example 64, N-(4-((1R,3S,5S)-3-amino-5-methylcyclohexyl)pyridin-3-yl)-6-(4-(cyclopropylmethoxy)-2,6-difluorophenyl)-5-fluoropicolinamide] |
| 0.08 | 324 | 2.39 | 3.3 | C[C@H]1C[C@@H](c2ccncc2NC(=O)c2ccc(F)c(-c3c(F)cc(COC4CCOCC4)cc3F)n2)C[C@@H](N)[C@@H]1O [Example 138, N-(4-((1R,3R,4R,5S)-3-amino-4-hydroxy-5-methylcyclohexyl)pyridin-3-yl)-6-(2,6-difluoro-4-((tetrahydro-2H-pyran-4-yloxy)methyl)phenyl)-5-fluoropicolinamide] |
| 0.02 | 21 | 0.35 | 1.14 | COc1cc(F)c(-c2nc(C(=O)Nc3cnccc3N3C[C@@H](N)[C@H](O)[C@@H](C)C3)ccc2F)c(F)c1 [Example 15, N-(4-((3R,4R,5S)-3-amino-4-hydroxy-5-methylpiperidin-1-yl)pyridin-3-yl)-6-(2,6-difluoro-4-methoxyphenyl)-5-fluoropicolinamide] |
| 0.16 | 221 | 23.9 | 17.3 | C[C@@H]1C[C@H](N)C[C@H](c2ccncc2NC(=O)c2ccc(F)c(-c3c(F)cc([S@+](C)[O-])cc3F)n2)C1 [Example 227, N-(4-((1R,3S,5S)-3-amino-5-methylcyclohexyl)pyridin-3-yl)-6-(2,6-difluoro-4-((S)-methylsulfinyl)phenyl)-5-fluoropicolinamide] |
| 0.04 | 20 | 1.03 | 2.2 | C[C@H]1CN(c2ccncc2NC(=O)c2ccc(F)c(-c3c(F)cc([C@H](O)CO)cc3F)n2)C[C@@H](N)[C@@H]1O [Example 233, N-(4-((3R,4R,5S)-3-amino-4-hydroxy-5-methylpiperidin-1-yl)pyridin-3-yl)-6-(4-((S)-1,2-dihydroxyethyl)-2,6-difluorophenyl)-5-fluoropicolinamide] |
| 0.01 | 34 | 0.09 | 0.51 | C[C@H]1CN(c2ccncc2NC(=O)c2ccc(F)c(-c3c(F)cc(OCC4CC4)cc3F)n2)C[C@@H](N)[C@@H]1O [Example 92, N-(4-((3R,4R,5S)-3-amino-4-hydroxy-5-methylpiperidin-1-yl)pyridin-3-yl)-6-(4-(cyclopropylmethoxy)-2,6-difluorophenyl)-5-fluoropicolinamide] |
| 0.02 | 48 | 0.97 | 2.21 | C[C@@H]1C[C@H](N)C[C@H](c2ccncc2NC(=O)c2ccc(F)c(-c3c(F)cc(OC4CCOC4)cc3F)n2)C1 (stereo in doubt) [Example 71, N-(4-((1R,3S,5S)-3-amino-5-methylcyclohexyl)pyridin-3-yl)-6-(2,6-difluoro-4-((R)-tetrahydrofuran-3-yloxy)phenyl)-5-fluoropicolinamide] |
| 0.02 | 47 | 0.52 | 1 | C[C@@H]1C[C@H](N)C[C@H](c2ccncc2NC(=O)c2ccc(F)c(-c3c(F)cc(C4(O)CCC4)cc3F)n2)C1 [Example 61, N-(4-((1R,3S,5S)-3-amino-5-methylcyclohexyl)pyridin-3-yl)-6-(2,6-difluoro-4-(1-hydroxycyclobutyl)phenyl)-5-fluoropicolinamide] |
| 0.02 | 88 | 2.04 | 2.13 | C[C@@H]1C[C@H](N)C[C@H](c2ccncc2NC(=O)c2ccc(F)c(-c3c(F)cc(C(C)(C)C#N)cc3F)n2)C1 [Example 164, N-(4-((1R,3S,5S)-3-amino-5-methylcyclohexyl)pyridin-3-yl)-6-(4-(2-cyanopropan-2-yl)-2,6-difluorophenyl)-5-fluoropicolinamide] |
| 0.01 | 21 | 0.26 | 0.67 | C[C@H]1CN(c2ccncc2NC(=O)c2ccc(F)c(-c3c(F)cc(C4(O)COC4)cc3F)n2)C[C@@H](N)[C@@H]1O [Example 89, N-(4-((3R,4R,5S)-3-amino-4-hydroxy-5-methylpiperidin-1-yl)pyridin-3-yl)-6-(2,6-difluoro-4-(3-hydroxyoxetan-3-yl)phenyl)-5-fluoropicolinamide] |
| 0.04 | 863 | 1.71 | 6.05 | C[C@H]1C[C@@H](c2ccncc2NC(=O)c2ccc(F)c(-c3c(F)cc(OC4CCOCC4)cc3F)n2)C[C@@H](N)[C@H]1O [Example 140, N-(4-((1R,3R,4S,5S)-3-amino-4-hydroxy-5-methylcyclohexyl)pyridin-3-yl)-6-(2,6-difluoro-4-(tetrahydro-2H-pyran-4-yloxy)phenyl)-5-fluoropicolinamide] |
| 0.03 | 244 | 1.99 | 3.5 | CCOC(C)(C)c1cc(F)c(-c2nc(C(=O)Nc3cnccc3[C@@H]3C[C@H](C)C[C@H](N)C3)ccc2F)c(F)c1 [Example 145, N-(4-((1R,3S,5S)-3-amino-5-methylcyclohexyl)pyridin-3-yl)-6-(4-(2-ethoxypropan-2-yl)-2,6-difluorophenyl)-5-fluoropicolinamide] |
| 0.03 | 60 | 0.89 | 2.38 | C[C@H]1C[C@@H](c2ccncc2NC(=O)c2ccc(F)c(-c3c(F)cc(OC4CCOC4)cc3F)n2)C[C@@H](N)[C@@H]1O (stereo in doubt) [Example 69, N-(4-((1R,3R,4R,5S)-3-amino-4-hydroxy-5-methylcyclohexyl)pyridin-3-yl)-6-(2,6-difluoro-4-((R)-tetrahydrofuran-3-yloxy)phenyl)-5-fluoropicolinamide] |
| 0.02 | 13 | 0.28 | 0.94 | Cc1cc(F)c(-c2nc(C(=O)Nc3cnccc3N3C[C@@H](N)[C@H](O)[C@@H](C)C3)ccc2F)c(F)c1 [Example 37, N-(4-((3R,4R,5S)-3-amino-4-hydroxy-5-methylpiperidin-1-yl)pyridin-3-yl)-6-(2,6-difluoro-4-methylphenyl)-5-fluoropicolinamide] |
| 0.01 | 59 | 0.8 | 1.66 | C[C@@H]1C[C@H](N)C[C@H](c2ccncc2NC(=O)c2ccc(F)c(-c3c(F)cc([C@@H]4CCOC4)cc3F)n2)C1 [Example 206, N-(4-((1R,3S,5S)-3-amino-5-methylcyclohexyl)pyridin-3-yl)-6-(2,6-difluoro-4-((S)-tetrahydrofuran-3-yl)phenyl)-5-fluoropicolinamide] |
| 0.04 | 72 | 1.09 | 3.97 | C[C@@H]1C[C@H](N)C[C@H](c2ccncc2NC(=O)c2ccc(F)c(-c3c(F)ccc(OC[C@H](O)CO)c3F)n2)C1 [Example 9, N-(4-((1R,3S,5S)-3-amino-5-methylcyclohexyl)pyridin-3-yl)-6-(3-((R)-2,3-dihydroxypropoxy)-2,6-difluorophenyl)-5-fluoropicolinamide] |
| 0.02 | 246 | 1.37 | 2.76 | C[C@@H]1C[C@H](N)C[C@H](c2ccncc2NC(=O)c2ccc(F)c(-c3c(F)cc(OCC(F)(F)F)cc3F)n2)C1 [Example 196, N-(4-((1R,3S,5S)-3-amino-5-methylcyclohexyl)pyridin-3-yl)-6-(2,6-difluoro-4-(2,2,2-trifluoroethoxy)phenyl)-5-fluoropicolinamide] |
| 0.02 | 30 | 0.36 | 1.3 | C[C@H]1C[C@@H](c2ccncc2NC(=O)c2nc(-c3c(F)cc(C(C)(C)O)cc3F)c(F)cc2N)C[C@@H](N)[C@@H]1O [Example 101, 3-amino-N-(4-((1R,3R,4R,5S)-3-amino-4-hydroxy-5-methylcyclohexyl)pyridin-3-yl)-6-(2,6-difluoro-4-(2-hydroxypropan-2-yl)phenyl)-5-fluoropicolinamide] |
| 0.01 | 98 | 0.17 | 0.33 | C[C@H]1CN(c2ccncc2NC(=O)c2ccc(F)c(-c3c(F)cc(OCC(F)(F)F)cc3F)n2)C[C@@H](N)[C@@H]1O [Example 198, N-(4-((3R,4R,5S)-3-amino-4-hydroxy-5-methylpiperidin-1-yl)pyridin-3-yl)-6-(2,6-difluoro-4-(2,2,2-trifluoroethoxy)phenyl)-5-fluoropicolinamide] |
